From US20240238368A1, “PEPTIDE FOR PREVENTING AND TREATING FIBROSIS” (NIBEC CO., LTD., priority 2021, published 2024)

Legend:
[1] = tested on: bleomycin-induced lung disease; details: bleomycin mice; for fibrous deposition in the lungs (Sirius Red and hematoxylin/phloxine staining) / area of fibrosis (Sirius Red): day 22; for fibrous deposition in the lungs (Sirius Red and hematoxylin/phloxine staining): peptides 30 mg/kg subcutaneously three times a week compared to NT and nintedanib groups, FIG. 8c; for area of fibrosis (Sirius Red): compared to NT group and nintedanib-treated group, P<0.05, FIG. 8d
Description: C57BL/6J mice (male, 7 weeks old) were purchased from Charles River. Mice were anesthetized by intraperitoneal administration of a mixture of Imalgene (ketamine, 100 mg/kg)/Rompun (xylazine, 20 mg/kg), and a total of 50 μl of bleomycin sulfate (1.45 mg/kg, MBcell, CA, USA) was injected intratracheally once, and saline was injected intratracheally in the normal group (day 0). On day 7, mice were divided into groups, each consisting of eight. PBS (NT), SEQ ID NO: 1 (30 mg/kg), and SEQ ID NO: 2 (30 mg/kg) were administered subcutaneously three times a week, and nintedanib (Fluorochem Ref=050741, 100 mg/kg) was administered orally daily. Each of the peptides of SEQ ID NO: 1 and SEQ ID NO: 2 was administered after dissolution in water for injection, and nintedanib was administered after mixing with water containing 0.5% hydroxyethylcellulose (Sigma; lot BCBV5033) and 0.01% Tween 80 (Sigma; lot BCBR6211V). While administering the drug for 21 days, body weight was measured every 2 days, and whether there were other clinical symptoms were checked.
After mice were sacrificed with isoflurane on day 22, lung tissue was excised therefrom and histological analysis was performed. Paraffin was introduced into the lungs, 5 μm paraffin sections were manufactured, Sirius Red staining and hematoxylin/phloxine staining were performed to evaluate the extent of pulmonary fibrosis and inflammation, and the extent of inflammation and fibrosis was observed through microscopy.
In order to quantify the fibrotic change, the area of the red (fibrotic portion) was quantified in the sample stained with Sirius Red.

pSmad2 = target: T1, pSmad2 (Homo sapiens, UniProt Q15796); assay: Inhibition of phosphorylation of Smad2 (Western blotting); type: cell-based; details: LX-2 cells, 10 ng/ml TGF-β1 24 hours, then peptide 10, 100 or 200 μM 24 hours; FIG. 5
T1 construct: LX-2 (Human hepatic stellate cell line, Millipore #SCC064); host or cells: LX-2 human hepatic stellate cell line
Description: (§1) 3×10^6 LX-2 cells were treated with 10 ng/ml TGF-β1 and cultured for 24 hours. The cells were treated with 10, 100, or 200 μM of the peptide of SEQ ID NO: 2 or 10 µM SIS3 (Smad3 inhibitor, Sigma-Aldrich, catalog #566405) in fresh medium and cultured for 24 hours.
(§2) Proteins were lysed using RIPA lysis buffer (25 mM Tris HCl pH 7.6, 150 mM NaCl, 1% NP-40, 1% sodium deoxycholate, 0.1% SDS) containing a protease inhibitor and a phosphatase inhibitor. Proteins were quantified by BCA protein assay, and the expression levels of pSmad2, Smad2, pSmad3, Smad3, TGFβ receptor 1, and GAPDH proteins were determined by Western blotting. For Western blotting, the sample was loaded in the same amount along with a size marker on an 8% SDS PAGE gel, electrophoresed for about 2 hours, and then transferred to a nitrocellulose membrane. The transferred membrane was blocked with 5% skim milk for 1 hour, and allowed to react with primary antibodies at a ratio of 1:1000 overnight. The primary antibodies used were pSmad2 (Cell Signaling, #3108), Smad2 (Cell Signaling, #5339), pSmad3 (Abcam, ab52903), Smad3 (Cell Signaling, #9513), TGFβ receptor1 (Abcam, ab31013), and GAPDH (Cell Signaling, #2118S). […]

pSmad3 = target: T2, pSmad3 (Homo sapiens, UniProt P84022); assay: Inhibition of phosphorylation of Smad3 (Western blotting); type: cell-based; details: LX-2 cells, 10 ng/ml TGF-β1 24 hours, then peptide 10, 100 or 200 μM 24 hours; effect from 10 μM; FIG. 5
T2 construct: LX-2 (Human hepatic stellate cell line, Millipore #SCC064); host or cells: LX-2 human hepatic stellate cell line
Description: as §1, §2

TGFβ receptor 1 = assay: TGFβ receptor expression level (Western blotting); type: cell-based, human; details: LX-2 cells, 10 ng/ml TGF-β1 24 hours, then peptide 10, 100 or 200 μM 24 hours; FIG. 5
Description: as §1, §2

[2] = tested on: COL1A2 and COL3A1 gene expression; assay: Inhibition of collagen gene expression in cells (real-time PCR); type: cell-based, human; details: IPF patient lung fibroblasts, 10 ng/ml TGF-β1 24 hours, then peptide 200 μM 24 hours; *p<0.05; FIG. 6
Description: The cells were seeded in a 24-well plate and cultured in starvation medium (Dulbecco's modified Eagle medium/F12 without FBS supplemented with 0.1 mM 2-phospho-L-ascorbic acid) for 24 hours. Recombinant Human TGF-β1 Protein (R&D Systems, #240-B-002) was diluted at 20 μg/ml in sterile 4 mM HCl containing 1 mg/ml bovine serum albumin. The cells were cultured for 24 hours in full growth media containing 10 ng/ml TGF-β1. The cells were treated with SEQ ID NO: 1 (200 μM), SEQ ID NO: 2 (200 μM), or nintedanib (10 μM) in fresh medium and cultured for 24 hours. The peptides were dissolved in purified water, nintedanib was dissolved in dimethyl sulfoxide, and the concentration of dimethyl sulfoxide in medium was set to 1%. The medium was removed, followed by washing with DPBS (Welgene, LB001-02) and cell lysis using 1 ml of a trizol reagent (Ambion, 15596). 250 μl of chloroform was added thereto, the tube was stirred, and centrifugation was performed at 10,000 rpm for 15 minutes. After removing the aqueous layer using a pipette, 550 μl of isopropanol (Sigma, 19516) was added and shaken gently. After centrifugation at 15,000 rpm for 25 minutes, isopropanol was removed, and 1 ml of 75% ethanol was added thereto. After removal of ethanol and drying in air, the pellets were dissolved in DEPC water (Invitrogen, AM9915G). The concentration of RNA was measured using a Nano Drop (Thermo Scientific, NanoDrop One, AZY1913798).
(§3) CDNA was synthesized from the extracted RNA using a Maxima First strand CDNA synthesis kit (Thermo Fisher, K1641) according to the manufacturer's protocol. In addition, real-time PCR was performed using QuantStudio 3 (Applied Biosystems, A28132) according to the manufacturer's protocol. PCR amplification was conducted by repeating 50 cycles at 95° C. for 30 seconds, 60° C. for 30 seconds, and 72° C. for 30 seconds.

[3] = tested on: MET markers (E-cadherin, EpCAM) and EMT markers (N-cadherin, Twist1, Snail1); assay: Reprogramming effects in cells: MET and EMT marker gene expression (real-time PCR); type: cell-based, human; details: LX-2 cells, 10 ng/ml TGF-beta1 and 100 μM peptide, 24 hours; FIG. 7
Description: The medium was removed, followed by washing with DPBS (Welgene, LB001-02) and cell lysis using 1 ml of a trizol reagent (Ambion, 15596). 250 μl of chloroform was added thereto, the tube was stirred, and centrifugation was performed at 10,000 rpm for 15 minutes. After removing the aqueous layer using a pipette, 550 μl of isopropanol (Sigma, 19516) was added and shaken gently. After centrifugation at 15,000 rpm for 25 minutes, isopropanol was removed, and 1 ml of 75% ethanol was added thereto. After removal of ethanol and drying in air, the pellets were dissolved in DEPC water (Invitrogen, AM9915G). The concentration of RNA was measured using a Nano Drop (Thermo Scientific, NanoDrop One, AZY1913798).
as §3, with “by repeating 40 cycles at” for “by repeating 50 cycles at”, “C. for 15 seconds, 60°” for “C. for 30 seconds, 60°”, “C. for 50 seconds, and” for “C. for 30 seconds, and”, “C. for 15 seconds.” for “C. for 30 seconds.”

[4] = tested on: methionine-choline-deficient (MCD) diet-induced hepatitis and hepatic fibrosis; assay: Methionine-choline-deficient diet mouse model (hepatitis and hepatic fibrosis); type: in vivo, C57BL/6J mice; details: MCD diet mice, peptide 20 mg/kg, 12 administrations at 3-day intervals, compared to NT group or GLP-1 agonist (liraglutide 0.2 mg/kg) group; for NAFLD activity score: FIGS. 9b, 9c; for area of fibrosis (Masson's trichrome-positive area): FIGS. 9d, 9e
Description: Male 6-week-old C57BL/6J mice were used, and divided into a normal diet group, a group not treated after feeding MCD diet, groups injected with the peptide of SEQ ID NO: 1 (20 mg/kg) and the peptide of SEQ ID NO: 2 (20 mg/kg), and a positive control group subcutaneously injected with liraglutide (0.2 mg/kg), which is a type of glucagon-like peptide 1 receptor agonist serving as a hepatitis therapeutic agent. After autonomous feeding of MCD diet for 10 weeks, 8 mice were assigned to each group and a therapeutic agent was administered thereto. Peptide and liraglutide were administered once a day, a total of 12 times at 3-day intervals (FIG. 9a). For all animals, body weight was measured immediately before initiation of administration and twice a week throughout the entire test. After the end of the last administration, the animals was anesthetized by intraperitoneal injection of 300 μl of Avertin, blood was collected from the abdominal vena cava by laparotomy, the liver and spleen were removed therefrom, and the weight of the removed organs was measured. Tissues were fixed in a neutral buffered formalin solution for all animals subjected to necropsy, and paraffin blocks were manufactured and sectioned through tissue processing. The tissue sections thus obtained were subjected to H&E staining. The H&E stained specimens were scored for steatosis, ballooning degeneration, and lobular inflammation (Table 3), and the extent of hepatic inflammation (NAFLD activity score) was measured. The tissue sections manufactured in the same manner as in Example 8-2 were stained with Masson's trichrome, and 100× magnification images were obtained with an optical microscope (BX51, Olympus, GER) at 5 randomly designated different sites among all Masson's trichrome-stained slides (300MI CMOS camera, […]). The blue-stained […] was measured (Image-Pro Plus, Media Cybernetics Inc., UK) and analyzed as a percentage (Masson's trichrome-positive area […]).

[5] = nintedanib 100 mg/kg orally daily
[6] = peptides 30 mg/kg subcutaneously three times a week

T1 sequence (Q15796 whole entry): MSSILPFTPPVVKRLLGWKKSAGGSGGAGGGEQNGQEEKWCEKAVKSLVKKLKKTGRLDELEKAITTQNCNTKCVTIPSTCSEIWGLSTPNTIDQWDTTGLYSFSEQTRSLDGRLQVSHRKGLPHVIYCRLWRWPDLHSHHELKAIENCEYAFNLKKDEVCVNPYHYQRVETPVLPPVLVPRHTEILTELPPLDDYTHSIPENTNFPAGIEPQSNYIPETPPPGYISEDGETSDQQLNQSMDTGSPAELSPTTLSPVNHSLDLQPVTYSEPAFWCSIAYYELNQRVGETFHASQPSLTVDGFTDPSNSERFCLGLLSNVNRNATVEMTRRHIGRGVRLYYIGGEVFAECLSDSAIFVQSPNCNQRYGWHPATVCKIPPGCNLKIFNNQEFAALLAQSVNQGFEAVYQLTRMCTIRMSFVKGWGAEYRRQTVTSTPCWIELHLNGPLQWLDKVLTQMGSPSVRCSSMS
T2 sequence (P84022 whole entry): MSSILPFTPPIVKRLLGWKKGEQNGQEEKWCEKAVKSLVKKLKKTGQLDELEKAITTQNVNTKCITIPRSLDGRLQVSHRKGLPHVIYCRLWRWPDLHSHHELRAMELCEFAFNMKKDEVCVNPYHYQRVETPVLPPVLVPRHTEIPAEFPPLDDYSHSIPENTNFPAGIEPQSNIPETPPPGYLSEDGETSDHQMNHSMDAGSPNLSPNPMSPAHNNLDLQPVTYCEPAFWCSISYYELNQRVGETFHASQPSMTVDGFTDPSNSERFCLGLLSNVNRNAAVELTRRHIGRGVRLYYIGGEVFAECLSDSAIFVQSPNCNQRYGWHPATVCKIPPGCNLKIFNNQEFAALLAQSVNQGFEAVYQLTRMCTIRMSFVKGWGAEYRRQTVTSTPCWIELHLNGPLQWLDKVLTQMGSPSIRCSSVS

Molecule | change in body weight after treatment ([1]; day 0 to day 22, treatment from day 7, peptides 30 mg/kg subcutaneously three times a week, nintedanib 100 mg/kg orally daily, FIG. 8b) | fibrous deposition in the lungs (Sirius Red and hematoxylin/phloxine staining) [1, 5] | expression of pSmad2 (pSmad2) | expression of pSmad3 (pSmad3) | expression level of the TGFβ receptor (TGFβ receptor 1) | COL1A2 gene expression [2] | COL3A1 gene expression [2] | gene expression of E-cadherin (MET marker) [3] | gene expression of EpCAM (MET marker) [3] | gene expression of N-cadherin (EMT marker) [3] | gene expression of Snail1 (EMT marker) [3] | gene expression of Twist1 (EMT marker) [3] | area of fibrosis (Sirius Red) [1, 6] | NAFLD activity score [4] | area of fibrosis (Masson's trichrome-positive area) [4]
COC(=O)c1ccc2c(c1)NC(=O)/C2=C(\Nc1ccc(N(C)C(=O)CN2CCN(C)CC2)cc1)c1ccccc1 [nintedanib, reference compound] | increased | some therapeutic effect, but a lot of deposited fibrous tissue was still observed | – | – | – | – | – | – | – | – | – | – | – | – | –
GKCSTRGRKSSRRKK [SEQ ID NO: 2] | – | significantly reduce fibrosis | decreased with an increase in the concentration | completely disappeared | no change | significantly reduced | significantly reduced | increased | increased | decreased | decreased | decreased | significant reduction | significantly reduced | significantly reduce
YGLRSKSKKFRRPDIQYPDAT [SEQ ID NO: 1] | – | significantly reduce fibrosis | – | – | – | significantly reduced | significantly reduced | – | – | – | – | – | significant reduction | significantly reduced | significantly reduce
